Source: US20090048278A1, “Novel Quinazoline-2,4-Diamine Derivatives and Their Use as Modulators of Small-Conductance Calcium-Activated Potassium Channels” (priority 2005, published 2009)
pIC50: −log10 of the molar value. Counter-ions that a name gives are not always drawn.

Biological target: T1, hSK3 channels (Homo sapiens, UniProt Q9UGI6)
T1 construct: expressed in transfected cells; host or cells: HEK293
Test: Whole-cell patch-clamp recording of SK3 current in HEK293 cells expressing hSK3 channels
Assay type: cell-based
Conditions: current at −75 mV, free Ca2+ 0.3-0.4 μM, room temperature, read-out: Ki value (concentration required for decreasing the baseline current to 50% of the initial current)
Method: The ionic current through small-conductance Ca^2+-activated K^+ channels (SK channels, subtype 3) was recorded using the whole-cell configuration of the patch-clamp technique.
HEK293 tissue culture cells expressing hSK3 channels were grown in DMEM (Dulbecco's Modified Eagle Medium) supplemented with 10% FCS (foetal calf serum) at 37° C. in 5% CO2. At 60-80% confluency, cells were harvested by trypsin treatment and seeded on cover slips.
Cells plated on coverslips are placed in a 15 μl perfusion chamber (flowrate ˜1 ml/min) mounted on an inverted microscope placed on a vibration-free table in a grounded Faraday cage. The experiments were performed at room temperature (20-22° C.). […] Data were stored directly on the hard-disk and analysed by IGOR software (Wavemetrics, Lake Oswega, Oreg., USA).
The whole-cell configuration of the patch-clamp technique was applied. […] Cell capacitance was electronically compensated and the resistance between the pipette and the cell interior (the series resistance, R^5) was measured and compensated for. […]
The intracellular (pipette) solution contained: 154 mM KCl, 10 mM HEPES, 10 mM EGTA. Concentrations of CaCl2 and MgCl2 needed to obtain the desired free concentrations of Ca^2+ (0.3-0.4 μM, Mg^2+ always 1 mM) were calculated by EqCal software (Cambridge, UK) and added. […]

Row | pIC50 | Structure (SMILES)
1 | 6.52 | N#CCCN(Cc1ccccc1)c1nc(NCc2ccc(Cl)cc2)c2ccccc2n1 [Example 8, N^2-Benzyl-N^4-(4-chlorobenzyl)-N^2-(cyanoethyl)quinazoline-2,4-diamine]

Tested on: not given
Test: not given
Conditions: not given

Row | Structure (SMILES) | melting point
2 | Clc1ccc(CNc2nc(NCc3ccc(Cl)cc3)c3ccccc3n2)cc1 (as salt: HCl) [Example 1, N^2,N^4-Bis(4-chlorobenzyl)quinazoline-2,4-diamine] | 263 to 264 °C
3 | Clc1ccc(CNc2nc(N3CCCCC3c3ccccc3)nc3ccccc23)cc1 (centres unmarked) [Example 6, (4-Chlorobenzyl)-[2-(2-phenylpiperidin-1-yl)quinazolin-4-yl]amine] | 86 to 87 °C

Next, values leading:

Row | melting point | Structure (SMILES)
4 | 275 to 276 °C | Fc1ccc(CNc2nc(NCc3ccc(F)c(F)c3)c3ccccc3n2)cc1F (as salt: HCl) [Example 2, N^2,N^4-Bis(3,4-difluorobenzyl)quinazoline-2,4-diamine]
5 | 166 to 167 °C | Clc1ccc(CNc2nc(NC3CCCc4ccccc43)c3ccccc3n2)cc1 (centres unmarked) (as salt: HCl) [Example 11, N^2-(4-Chlorobenzyl)-N^4-(1,2,3,4-tetrahydronaphthalen-1-yl)quinazoline-2,4-diamine]
6 | 148 to 149 °C | NCc1cccc(CNc2nc(NCc3ccc(F)c(F)c3)c3ccccc3n2)c1 [Example 3, N^2-(3-Aminomethylbenzyl)-N^4-(3,4-difluorobenzyl)quinazoline-2,4-diamine]
7 | 59 to 60 °C | CN(C)c1ccc(CNc2nc(NCc3ccc(F)c(F)c3)nc3ccccc23)cc1 [Example 5, N^2-(3,4-Difluorobenzyl)-N^4-(4-dimethylaminobenzyl)quinazoline-2,4-diamine]
8 | 188 to 190.5 °C | OCCN(Cc1ccccc1)c1nc(NCc2ccc(Cl)cc2)c2ccccc2n1 [Example 7, N^2-Benzyl-N^4-(4-chlorobenzyl)-N^2-(hydroxyethyl)quinazoline-2,4-diamine]
